System: human umbilical-vein endothelial cells (HUVEC)
Test: Tube Formation Assay (TFA) Test, HUVEC in collagen gel
Assay type: cell-based
Details: Homo sapiens, HUVEC, Tables 75-83; 0.32 mM sample solution; method as for Compounds 1 through 60; read-out: TFA Inhibition rate (%)
Description: Furthermore, the sample liquids of compounds used in the CPA and CMA tests were prepared in the manner described below. Firstly, after weighing out each compound, a calculated amount of DMSO was added. After dissolving the compound in the DMSO, phosphate buffered physiological saline (PBS (-)) was added to bring the sample concentration to 1 mg/ml in PBS (-). The amount of DMSO used to dissolve the compounds was adjusted in advance to that the concentration of DMSO at that time was 5%. The resulting liquids were diluted 10-fold with 5% DMSO-PBS (-) solution to prepare sample solutions having a concentration of 0.1 mg/ml. In the TFA test, 320 μl of the prepared 1 mg/ml sample solutions were removed followed by addition of 680 μl of PBS (-) to prepare samples having a concentration of […]. Moreover, 100 μl of this solution was removed followed by addition of 900 μl of PBS (-) to dilute 10-fold and prepare samples having a concentration of 1 μg/ml. P [Cell Proliferation Assay (CPA) Test]
To begin with, 8 volumes of Type 1-A cell matrix (manufactured by Gibco Co.), 1 volume of 10×M119, and 1 volume of reconstituted buffer [200 mM HEPES, 0.05 N sodium hydroxide, 260 mM sodium bicarbonate] were slowly mixed under cooling with ice while avoiding bubbling to form a collagen gel. This collagen gel was distributed in a NUNC 24-well plate at 310 μl/well followed by allowing to stand undisturbed for 2 hours at 37° C. to solidify the gel.
Next, the 7th subculture of HUVEC (1×10^5 cells/ml) obtained from the first generation in the same manner as above were disseminated at 500 μl/well. The cells were cultured for 2 hours at 37° C. to allow the cells to make contact with the collagen. After then removing the medium by aspiration, 50 μl of sample solution were added followed by addition of 310 μl/well of freshly prepared collagen gel and culturing for 1 hour and 10 minutes at 37° C. to solidify the double-layer gel.
1 ml/well of M-199 medium containing 20% FCS, 30 ng /ml of b-FGF and 0.1 μM PMA were added to the wells followed by culturing for 20 hours at 37° C. in the presence of 5% CO2.
Measurement of the lengths of the formed tubes was performed using the public domain NIH Image with a computer.
Evaluation was performed by calculating the inhibition rate (%) of tube formation according to the following formula.
Inhibition rate (%)=100-((formed tube length in presence of sample-formed tube length in presence of control (-))×100/(formed tube length in presence of control (+)-formed tube length in presence of control (-)))
(§1) Samples were prepared using the present compounds of Compound No. I-60 through I-315. More specifically, 32 μl of a 20 mM sample solution dissolved in dimethylsulfoxide (DMSO) were removed and brought to a volume of 1 ml with phosphate-buffered saline (PBS) to prepare a sample solution having a concentration of 0.32 mM (containing 3.2% DMSO).
The testing method used for these compounds was the same as that used for the compounds of Compound No. 1 through 60 previously described.

Row | SMILES | inhibition at 320 µM (stock)
1 | COC(=O)C1=CO[C@H](OC(=S)N(C)C)[C@H]2[C@@H]1C[C@@H]1O[C@]21C [I-285] | 7.7%
2 | CNC(=O)O[C@@H]1OC=C(C(=O)N2CCN(CCO)CC2)[C@H]2CC[C@@H](C)[C@@H]12 [I-282] | 6%
3 | COC(=O)C1=CO[C@@H](OC(=O)NC(C)C)[C@H]2[C@@H]1CC[C@@H]2C [I-261] | 32.1%
4 | COC(=O)C1=CO[C@@H](OC(=O)N2CCc3ccccc3C2)[C@@H]2C(C)=CC[C@H]12 [I-120] | 7.8%
5 | COC(=O)C1=CO[C@@H](OC(=O)NCCSCc2ccccc2)[C@@H]2C(C)=CC[C@H]12 [I-150] | 32.3%
6 | COC(=O)C1=CO[C@@H](OC(=O)NCC(OC)OC)[C@H]2[C@@H]1CC[C@@H]2C [I-201] | 18.5%
7 | COC(=O)C1=CO[C@@H](OC(=O)NCc2ccc(OC)cc2)[C@@H]2C(C)=CC[C@H]12 [I-83] | 21.4%
8 | COC(=O)C1=CO[C@@H](OC(=O)NCCCCCO)[C@H]2[C@@H]1CC[C@@H]2C [I-209] | 4.9%
9 | COC(=O)C1=CO[C@@H](OC(N)=O)[C@H]2[C@@H]1CC[C@@H]2C [I-179] | 5.2%
10 | COC(=O)C1=CO[C@@H](OC(=O)NCCCN2CCOCC2)[C@H]2[C@@H]1CC[C@@H]2C [I-229] | 3%
11 | CNC(=O)O[C@@H]1OC=C(C(=O)O)[C@H]2CC[C@@H](C)[C@@H]12 [I-281] | 31.1%
12 | COC(=O)C1=CO[C@@H](OC(=O)Nc2ccc(OC(F)(F)F)cc2)[C@@H]2C(C)=CC[C@H]12 [I-165] | 7.5%
13 | CC1=CC[C@@H]2C(C(=O)O)=CO[C@@H](OC(=O)Nc3ccc(F)cc3F)[C@H]12 [I-308] | 23.2%
14 | COC(=O)C1=CO[C@@H](OC(=O)NCc2ccco2)[C@@H]2C(C)=CC[C@H]12 [I-110] | 4.6%
15 | COC(=O)C1=CO[C@@H](OC(=O)NCc2ccccn2)[C@H]2[C@@H]1CC[C@@H]2C [I-177] | 15%
16 | COC(=O)C1=CO[C@@H](OC(=O)NCCc2ccc(OC)cc2)[C@@H]2C(C)=CC[C@H]12 [I-98] | 3.8%
17 | CCC(CC)NC(=O)O[C@@H]1OC=C(C(=O)OC)[C@H]2CC[C@H](C)[C@@H]12 [I-207] | 4.4%
18 | CCOC(=O)CNC(=O)C1=CO[C@@H](OC(=O)NC)[C@H]2[C@@H]1C[C@@H]1O[C@]21C [I-65] | 32.4%
19 | COC(=O)C1=CO[C@@H](OC(=O)NCc2cccc(C(F)(F)F)c2)[C@H]2[C@@H]1CC[C@@H]2C [I-233] | 4.1%

System: HUFEC
Test: Cell Migration Assay (CMA) Test, inhibitory rate with control (-) correction
Assay type: cell-based, human
Details: Homo sapiens, 24 h, 125 μl of 0.32 mM sample solution in 4.0 ml medium, 80% or more = remarkable
Description: as §1
After disseminating the 7th subculture of […] obtained from the first generation at 4 ml/well (3.0×10^5 cells/well) in a collagen-coated 6-well plate (NUNC), the cells were cultured for 48 hours at 37° C. in the presence of 5% CO2. The cells reached nearly a completely confluent state as a result of this culturing.
A double-edged, disposable razor blade was divided into four sections, of which one of those sections was pinched between a pair of forceps. Using this piece of razor blade, the cell surface in the above confluent state was scraped off.
After washing the surface of the wells from which the cells had been scraped off with medium, 4.0 ml of fresh M199 (2+) medium were placed in the wells. 4.0 ml of M199 medium were added to the control (-) well.
125 μl of sample solution (0.32 mM, containing 3.2% dimethylsulfoxide) were added to the wells.
125 μl of PBS solution containing 3.2% dimethylsulfoxide were added to the control wells instead of sample. The cells were cultured for 24 hours at 37° C. in the presence of 5% CO2. After discarding the culture liquid, the cells were fixed for 30 minutes with methanol. Next, after […] the cells for 4 hours with Giemsa stain, the plates were washed with tap water and air dried.
Measurement of cell migration was performed by microscopically counting the number of cells that had newly migrated within the range of a 1 mm×1 mm block. […] The total number of cells counted in blocks 1 through 5 were then totaled to determine the overall total number of cells. Four fields were counted for each well.
Evaluation was performed determining the cell migration inhibitory rate (%) according to the following equation.
Inhibitory rate=100-((number of migrating cells to which sample was added-number of migrating cells of control (-))×100/(number of migrating cells of control (+)-number of migrating cells of control (-)))
If this inhibitory rate was 80% or more, cell migration was assessed as being remarkable.

Row | SMILES | inhibition at 320 µM (stock)
20 | COC(=O)C1=CO[C@H](OC(=S)N(C)C)[C@H]2[C@@H]1C[C@@H]1O[C@]21C [I-285] | 6.5%
21 | CNC(=O)O[C@@H]1OC=C(C(=O)N2CCN(CCO)CC2)[C@H]2CC[C@@H](C)[C@@H]12 [I-282] | 5.8%
22 | COC(=O)C1=CO[C@@H](OC(=O)NC(C)C)[C@H]2[C@@H]1CC[C@@H]2C [I-261] | 37.5%
23 | COC(=O)C1=CO[C@@H](OC(=O)N2CCc3ccccc3C2)[C@@H]2C(C)=CC[C@H]12 [I-120] | 3.1%
24 | COC(=O)C1=CO[C@@H](OC(=O)NCCSCc2ccccc2)[C@@H]2C(C)=CC[C@H]12 [I-150] | 5.4%
25 | COC(=O)C1=CO[C@@H](OC(=O)NCC(OC)OC)[C@H]2[C@@H]1CC[C@@H]2C [I-201] | 8.5%
26 | COC(=O)C1=CO[C@@H](OC(=O)NCc2ccc(OC)cc2)[C@@H]2C(C)=CC[C@H]12 [I-83] | 50%
27 | COC(=O)C1=CO[C@@H](OC(=O)NCCCCCO)[C@H]2[C@@H]1CC[C@@H]2C [I-209] | 8.9%
28 | COC(=O)C1=CO[C@@H](OC(N)=O)[C@H]2[C@@H]1CC[C@@H]2C [I-179] | 81.3%
29 | COC(=O)C1=CO[C@@H](OC(=O)NCCCN2CCOCC2)[C@H]2[C@@H]1CC[C@@H]2C [I-229] | 19.5%
30 | CNC(=O)O[C@@H]1OC=C(C(=O)O)[C@H]2CC[C@@H](C)[C@@H]12 [I-281] | 27.9%
31 | COC(=O)C1=CO[C@@H](OC(=O)Nc2ccc(OC(F)(F)F)cc2)[C@@H]2C(C)=CC[C@H]12 [I-165] | 12.5%
32 | CC1=CC[C@@H]2C(C(=O)O)=CO[C@@H](OC(=O)Nc3ccc(F)cc3F)[C@H]12 [I-308] | 32.1%
33 | COC(=O)C1=CO[C@@H](OC(=O)NCc2ccco2)[C@@H]2C(C)=CC[C@H]12 [I-110] | 7.8%
34 | COC(=O)C1=CO[C@@H](OC(=O)NCc2ccccn2)[C@H]2[C@@H]1CC[C@@H]2C [I-177] | 5%
35 | COC(=O)C1=CO[C@@H](OC(=O)NCCc2ccc(OC)cc2)[C@@H]2C(C)=CC[C@H]12 [I-98] | 2.7%
36 | CCC(CC)NC(=O)O[C@@H]1OC=C(C(=O)OC)[C@H]2CC[C@H](C)[C@@H]12 [I-207] | 5.5%
37 | CCOC(=O)CNC(=O)C1=CO[C@@H](OC(=O)NC)[C@H]2[C@@H]1C[C@@H]1O[C@]21C [I-65] | 73.4%
38 | COC(=O)C1=CO[C@@H](OC(=O)NCc2cccc(C(F)(F)F)c2)[C@H]2[C@@H]1CC[C@@H]2C [I-233] | 5.5%

Reference: US6225478A, “Iridoid derivatives and neovascularization inhibitors containing the same as active ingredient” (Tsumura & Co., priority 1999, dated 2001)
